Results as given in ChEMBL document CHEMBL5370672, “Discovery of Orally Bioavailable Phthalazinone Analogues as an ENPP1 Inhibitor for STING-Mediated Cancer Immunotherapy” (J Med Chem, 2023).
pIC50: −log10 of the molar value. Activity calls are given as the source filed them. The rule behind the calls is not given here.

Tests used:
[1] = biological target: T1, Ectonucleotide pyrophosphatase/phosphodiesterase family member 1 (Homo sapiens, UniProt P22413); assay: Inhibition of recombinant human ENPP1 using cGAMP as substrate assessed as inhibition of cGAMP hydrolysis preincubated for 5 to 10 mins followed by substrate addition and measured after 90 mins by AMP-Glo reagent based luminescence plate reader analysis
T1 sequence (P22413 whole entry): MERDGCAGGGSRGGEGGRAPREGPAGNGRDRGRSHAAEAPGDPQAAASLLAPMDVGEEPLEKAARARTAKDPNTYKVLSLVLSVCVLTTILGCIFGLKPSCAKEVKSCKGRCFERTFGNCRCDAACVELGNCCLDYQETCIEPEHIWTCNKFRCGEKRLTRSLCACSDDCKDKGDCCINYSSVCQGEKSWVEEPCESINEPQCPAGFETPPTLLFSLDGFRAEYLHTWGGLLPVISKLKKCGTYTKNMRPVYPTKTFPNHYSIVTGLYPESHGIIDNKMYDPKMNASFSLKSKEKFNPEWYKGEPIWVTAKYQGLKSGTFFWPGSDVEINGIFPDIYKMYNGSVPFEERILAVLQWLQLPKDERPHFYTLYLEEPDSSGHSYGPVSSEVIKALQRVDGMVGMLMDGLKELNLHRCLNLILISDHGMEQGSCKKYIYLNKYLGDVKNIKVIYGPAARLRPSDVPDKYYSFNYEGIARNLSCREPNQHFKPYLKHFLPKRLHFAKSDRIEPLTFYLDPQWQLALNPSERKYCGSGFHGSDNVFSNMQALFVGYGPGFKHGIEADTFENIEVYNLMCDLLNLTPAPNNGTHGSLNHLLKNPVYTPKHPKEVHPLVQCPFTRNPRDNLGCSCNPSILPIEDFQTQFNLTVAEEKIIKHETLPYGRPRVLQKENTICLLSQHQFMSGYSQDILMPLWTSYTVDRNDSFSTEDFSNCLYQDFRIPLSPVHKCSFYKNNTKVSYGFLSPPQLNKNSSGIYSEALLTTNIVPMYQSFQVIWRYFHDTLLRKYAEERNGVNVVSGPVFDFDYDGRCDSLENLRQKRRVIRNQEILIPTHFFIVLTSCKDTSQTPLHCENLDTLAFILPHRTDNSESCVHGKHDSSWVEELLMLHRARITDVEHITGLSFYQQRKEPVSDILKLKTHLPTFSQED

[2] = biological target: Stimulator of interferon genes protein (Homo sapiens) (UniProt Q86WV6); assay: (§1) Activation of STING-mediated immune response in human HCT-116 cells transfected with ISRE reporter assessed as increase in cGAMP-induced ISRE activation by measuring fold change at 100 uM preincubated with compound for 1 hrs followed by cGAMP addition and measured after 48 hrs by luciferase reporter gene assay; format: cell-based; settings: filed as activator, time 49.0 hrs
Chain of Stimulator of interferon genes protein (Homo sapiens) (Q86WV6 whole entry): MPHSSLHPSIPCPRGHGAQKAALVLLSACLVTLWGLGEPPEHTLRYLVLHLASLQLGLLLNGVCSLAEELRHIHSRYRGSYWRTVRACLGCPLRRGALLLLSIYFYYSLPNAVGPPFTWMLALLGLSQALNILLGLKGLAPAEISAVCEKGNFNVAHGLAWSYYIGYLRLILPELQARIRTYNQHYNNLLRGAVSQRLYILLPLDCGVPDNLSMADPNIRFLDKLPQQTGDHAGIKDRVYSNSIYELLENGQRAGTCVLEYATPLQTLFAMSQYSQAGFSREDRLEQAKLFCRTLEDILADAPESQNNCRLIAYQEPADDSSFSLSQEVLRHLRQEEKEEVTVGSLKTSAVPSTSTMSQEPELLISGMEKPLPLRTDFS

[3] = biological target: Stimulator of interferon genes protein (Homo sapiens) (UniProt Q86WV6); assay: Activation of STING-mediated immune response in human HCT-116 cells transfected with ISRE reporter assessed as increase in cGAMP-induced ISRE activation at 25 to 100 uM preincubated with compound for 1 hrs followed by cGAMP addition and measured after 48 hrs by luciferase reporter gene assay; format: cell-based; settings: filed as activator, dose 25-100 µM, time 49.0 hrs
[4] = biological target: Stimulator of interferon genes protein (Homo sapiens) (UniProt Q86WV6); assay: as §1, with “change at 25 to 100 uM” for “change at 100 uM”; format: cell-based; settings: filed as activator, dose 25-100 µM, time 49.0 hrs

| pIC50 [1] | fold change (FC) [2] | Activity [3] | fold change (FC) [4] | SMILES |
| --- | --- | --- | --- | --- |
| 5.94 | – | – | – | NS(=O)(=O)NCc1ccc(-c2nn(-c3ccccc3)c(=O)c3ccccc23)cc1 |
| 6.54 | 1.75 | – | – | Cn1nc(-c2ccc(CNS(N)(=O)=O)cc2)c2ccccc2c1=O |
| 5.87 | – | – | – | NS(=O)(=O)Nc1ccc(Cc2n[nH]c(=O)c3ccccc23)c(C(F)(F)F)c1 |
| 5.66 | – | – | – | NS(=O)(=O)Nc1ccc(Cc2n[nH]c(=O)c3ccccc23)cc1C(F)(F)F |
| 7.43 | 1.07 | – | – | COc1cc2c(-c3ccc(CNS(N)(=O)=O)cc3)n[nH]c(=O)c2cc1OC |
| 6.61 | – | Active | – | COc1cc2c(Cc3ccc(N(C)S(N)(=O)=O)cc3)nn(C)c(=O)c2cc1OC |
| 5.74 | – | – | – | Cn1nc(-c2ccc(CCS(N)(=O)=O)cc2)c2ccccc2c1=O |
| 6.86 | 1.71 | – | – | NS(=O)(=O)NCc1ccc(-c2n[nH]c(=O)c3ccccc23)cc1 |
| 6.42 | – | – | – | NS(=O)(=O)NCc1ccc(-c2n[nH]c(=O)c3ccccc23)cc1C(F)(F)F |
| 5.94 | – | – | – | CN(c1ccc(Cc2n[nH]c(=O)c3ccccc23)cc1)S(N)(=O)=O |
| 5.84 | – | – | – | NS(=O)(=O)NCc1ccc(-c2nn(Cc3ccccc3)c(=O)c3ccccc23)cc1 |
| 6.40 | – | – | – | COc1cc2c(N3CCC(CNS(N)(=O)=O)CC3)n[nH]c(=O)c2cc1OC |
| 6.23 | – | – | – | COc1ccc2c(-c3ccc(CNS(N)(=O)=O)cc3)n[nH]c(=O)c2c1 |
| 6.34 | – | – | – | COc1cc2c(N3CCC(CNS(N)(=O)=O)CC3)nn(C)c(=O)c2cc1OC |
| 6.93 | – | Active | – | COc1cc2c(Cc3ccc(NS(N)(=O)=O)cc3)nn(C)c(=O)c2cc1OC |
| 5.88 | – | – | – | COc1ccc2c(=O)n(C)nc(-c3ccc(CNS(N)(=O)=O)cc3)c2c1 |
| 7.41 | – | – | 1.85 | NS(=O)(=O)Nc1ccc(Cc2n[nH]c(=O)c3ccccc23)cc1 |
| 5.61 | – | – | – | Cn1nc(N2CCC(CNS(N)(=O)=O)CC2)c2ccccc2c1=O |
| 5.65 | – | – | – | Cn1nc(-c2ccc3c(c2)CCN(S(N)(=O)=O)C3)c2ccccc2c1=O |
| 6.68 | – | – | 3.23 | COc1cc2c(Cc3ccc4c(c3)CCN4S(N)(=O)=O)nn(C)c(=O)c2cc1OC |
| 6.36 | – | – | – | NS(=O)(=O)NCC1CCN(c2n[nH]c(=O)c3ccccc23)CC1 |
| 6.56 | – | Active | – | NS(=O)(=O)Nc1ccc(Cc2n[nH]c(=O)c3ccccc23)c(F)c1 |
| 7.16 | – | – | 2.49 | COc1cc2c(Cc3ccc(NS(N)(=O)=O)cc3)n[nH]c(=O)c2cc1OC |
| 6.53 | – | Active | – | NS(=O)(=O)Nc1ccc(Cc2n[nH]c(=O)c3ccccc23)cc1F |
| 6.78 | – | Active | – | COc1cc2c(Cc3ccc(N(C)S(N)(=O)=O)cc3)n[nH]c(=O)c2cc1OC |
| 6.68 | – | – | 1.53 | COc1cc2c(Cc3ccc4c(c3)CCN4S(N)(=O)=O)n[nH]c(=O)c2cc1OC |
